Source: ChEMBL document CHEMBL3596184, “Prostate tumor specific peptide-peptoid hybrid prodrugs” (2015)
Numbered stars: 1 amine (or outer) side, 2 acyl side, 3 side chain; on linkers, the order of the positions; unused ones are H or OH. Square brackets hold non-standard residues; d marks the D form. Peptide text beside a SMILES is read from it. γGlu = O=C(O)[C@H](CCC(=O)[*:2])N[*:1]; Hyp = O=C(O)[C@@H]1C[C@@H](O)CN1; Nspe = C[C@H](NCC(=O)O)c1ccccc1; Chg = N[C@H](C(=O)O)C1CCCCC1; Nlys = NCCCCNCC(=O)O

Columns and labels:
Type in all cases: functional
PC-3 = assay: Cytotoxicity against human PC3 cells assessed as induction of cell death after 48 hrs by MTS assay; conditions: PC-3, 48 h, read-out: LC50 (the source's name)
LNCaP [1] = assay: Selectivity ratio of LC50 for human PC3 cells to LC50 for human LNCaP cells
LNCaP [2] = assay: Cytotoxicity against human LNCAP cells assessed as induction of cell death after 48 hrs by MTS assay; conditions: read-out: LC50 (the source's name)

C[C@@H](c1ccccc1)N(CC(N)=O)C(=O)CN(C(=O)CN(CCCCN)C(=O)CN(C(=O)CN(C(=O)CN(CCCCN)C(=O)CN(C(=O)CN(C(=O)CN(CCCCN)C(=O)CN(C(=O)CN(C(=O)CN(CCCCN)C(=O)CC[C@H](N)C(=O)O)[C@@H](C)c1ccccc1)[C@@H](C)c1ccccc1)[C@@H](C)c1ccccc1)[C@@H](C)c1ccccc1)[C@@H](C)c1ccccc1)[C@@H](C)c1ccccc1)[C@@H](C)c1ccccc1
CC50 (PC-3): 12 µM
RatioLC50 (LNCaP [1]): 1.3
CC50 (LNCaP [2]): 9.5 µM

CC(=O)N[C@@H](CCC(=O)N[C@@H](CCC(=O)N[C@@H](Cc1cnc[nH]1)C(=O)N[C@@H](CO)C(=O)N[C@@H](CO)C(=O)N[C@@H](CCCCN)C(=O)N[C@@H](CC(C)C)C(=O)N[C@@H](CCC(N)=O)C(=O)N(CCCCN)CC(=O)N(CC(=O)N(CC(=O)N(CCCCN)CC(=O)N(CC(=O)N(CC(=O)N(CCCCN)CC(=O)N(CC(=O)N(CC(=O)N(CCCCN)CC(=O)N(CC(=O)N(CC(N)=O)[C@@H](C)c1ccccc1)[C@@H](C)c1ccccc1)[C@@H](C)c1ccccc1)[C@@H](C)c1ccccc1)[C@@H](C)c1ccccc1)[C@@H](C)c1ccccc1)[C@@H](C)c1ccccc1)[C@@H](C)c1ccccc1)C(=O)O)C(=O)O (Ac-[γGlu][γGlu]HSSKLQ[Nlys][Nspe][Nspe][Nlys][Nspe][Nspe][Nlys][Nspe][Nspe][Nlys][Nspe][Nspe]-NH2)
CC50 (PC-3): 28 µM
RatioLC50 (LNCaP [1]): 1.6
CC50 (LNCaP [2]): 18 µM

CC(=O)N[C@@H](CCC(=O)N[C@@H](CCC(=O)N[C@@H](CCC(=O)N[C@@H](Cc1cnc[nH]1)C(=O)N[C@@H](CO)C(=O)N[C@@H](CO)C(=O)N[C@@H](CCCCN)C(=O)N[C@@H](CC(C)C)C(=O)N[C@@H](CCC(N)=O)C(=O)N(CCCCN)CC(=O)N(CC(=O)N(CC(=O)N(CCCCN)CC(=O)N(CC(=O)N(CC(=O)N(CCCCN)CC(=O)N(CC(=O)N(CC(=O)N(CCCCN)CC(=O)N(CC(=O)N(CC(N)=O)[C@@H](C)c1ccccc1)[C@@H](C)c1ccccc1)[C@@H](C)c1ccccc1)[C@@H](C)c1ccccc1)[C@@H](C)c1ccccc1)[C@@H](C)c1ccccc1)[C@@H](C)c1ccccc1)[C@@H](C)c1ccccc1)C(=O)O)C(=O)O)C(=O)O (Ac-[γGlu][γGlu][γGlu]HSSKLQ[Nlys][Nspe][Nspe][Nlys][Nspe][Nspe][Nlys][Nspe][Nspe][Nlys][Nspe][Nspe]-NH2)
CC50 (PC-3): 37 µM
RatioLC50 (LNCaP [1]): 1.2
CC50 (LNCaP [2]): 31 µM

CC(=O)N[C@@H](CCC(=O)N[C@@H](CCC(=O)N[C@@H](CCC(=O)N[C@@H](CCC(=O)N[C@@H](Cc1cnc[nH]1)C(=O)N[C@@H](CO)C(=O)N[C@@H](CO)C(=O)N[C@@H](CCCCN)C(=O)N[C@@H](CC(C)C)C(=O)N[C@@H](CCC(N)=O)C(=O)N(CCCCN)CC(=O)N(CC(=O)N(CC(=O)N(CCCCN)CC(=O)N(CC(=O)N(CC(=O)N(CCCCN)CC(=O)N(CC(=O)N(CC(=O)N(CCCCN)CC(=O)N(CC(=O)N(CC(N)=O)[C@@H](C)c1ccccc1)[C@@H](C)c1ccccc1)[C@@H](C)c1ccccc1)[C@@H](C)c1ccccc1)[C@@H](C)c1ccccc1)[C@@H](C)c1ccccc1)[C@@H](C)c1ccccc1)[C@@H](C)c1ccccc1)C(=O)O)C(=O)O)C(=O)O)C(=O)O (Ac-[γGlu][γGlu][γGlu][γGlu]HSSKLQ[Nlys][Nspe][Nspe][Nlys][Nspe][Nspe][Nlys][Nspe][Nspe][Nlys][Nspe][Nspe]-NH2)
CC50 (PC-3): 47 µM
RatioLC50 (LNCaP [1]): 1.3
CC50 (LNCaP [2]): 35 µM

CC(C)C[C@H](NC(=O)[C@H](CCCCN)NC(=O)[C@H](CO)NC(=O)[C@H](CO)NC(=O)[C@@H](N)Cc1cnc[nH]1)C(=O)N[C@@H](CCC(N)=O)C(=O)N(CCCCN)CC(=O)N(CC(=O)N(CC(=O)N(CCCCN)CC(=O)N(CC(=O)N(CC(=O)N(CCCCN)CC(=O)N(CC(=O)N(CC(=O)N(CCCCN)CC(=O)N(CC(=O)N(CC(N)=O)[C@@H](C)c1ccccc1)[C@@H](C)c1ccccc1)[C@@H](C)c1ccccc1)[C@@H](C)c1ccccc1)[C@@H](C)c1ccccc1)[C@@H](C)c1ccccc1)[C@@H](C)c1ccccc1)[C@@H](C)c1ccccc1 (H-HSSKLQ[Nlys][Nspe][Nspe][Nlys][Nspe][Nspe][Nlys][Nspe][Nspe][Nlys][Nspe][Nspe]-NH2)
CC50 (PC-3): 19.6 µM
RatioLC50 (LNCaP [1]): 2.1
CC50 (LNCaP [2]): 9.2 µM

C[C@@H](c1ccccc1)N(CC(N)=O)C(=O)CN(C(=O)CN(CCCCN)C(=O)CN(C(=O)CN(C(=O)CN(CCCCN)C(=O)CN(C(=O)CN(C(=O)CN(CCCCN)C(=O)CN(C(=O)CN(C(=O)CN(CCCCN)C(=O)[C@@H]1CCCN1C(=O)[C@H](CO)NC(=O)[C@H](CO)NC(=O)[C@H](CCC(N)=O)NC(=O)[C@@H](NC(=O)[C@H](CO)NC(=O)[C@H](CO)NC(=O)[C@@H]1C[C@@H](O)CN1)C1CCCCC1)[C@@H](C)c1ccccc1)[C@@H](C)c1ccccc1)[C@@H](C)c1ccccc1)[C@@H](C)c1ccccc1)[C@@H](C)c1ccccc1)[C@@H](C)c1ccccc1)[C@@H](C)c1ccccc1 (H-[Hyp]SS[Chg]QSSP[Nlys][Nspe][Nspe][Nlys][Nspe][Nspe][Nlys][Nspe][Nspe][Nlys][Nspe][Nspe]-NH2)
CC50 (PC-3): 35 µM
RatioLC50 (LNCaP [1]): 2.1
CC50 (LNCaP [2]): 17 µM

CC(C)C[C@H](NC(=O)[C@H](CCCCN)NC(=O)[C@H](CO)NC(=O)[C@H](CO)NC(=O)[C@H](Cc1cnc[nH]1)NC(=O)CNCCCCN)C(=O)N[C@@H](CCC(N)=O)C(=O)N(CC(=O)N(CC(=O)N(CCCCN)CC(=O)N(CC(=O)N(CC(=O)N(CCCCN)CC(=O)N(CC(=O)N(CC(=O)N(CCCCN)CC(=O)N(CC(=O)N(CC(N)=O)[C@@H](C)c1ccccc1)[C@@H](C)c1ccccc1)[C@@H](C)c1ccccc1)[C@@H](C)c1ccccc1)[C@@H](C)c1ccccc1)[C@@H](C)c1ccccc1)[C@@H](C)c1ccccc1)[C@@H](C)c1ccccc1 (H-[Nlys]HSSKLQ[Nspe][Nspe][Nlys][Nspe][Nspe][Nlys][Nspe][Nspe][Nlys][Nspe][Nspe]-NH2)
CC50 (PC-3): 16.9 µM
RatioLC50 (LNCaP [1]): 3
CC50 (LNCaP [2]): 5.7 µM

CC(C)C[C@H](NC(=O)[C@H](CCCCN)NC(=O)[C@H](CO)NC(=O)[C@H](CO)NC(=O)[C@H](Cc1cnc[nH]1)NC(=O)CN(CCCCN)C(=O)CN(C(=O)CN(C(=O)CNCCCCN)[C@@H](C)c1ccccc1)[C@@H](C)c1ccccc1)C(=O)N[C@@H](CCC(N)=O)C(=O)N(CC(=O)N(CC(=O)N(CCCCN)CC(=O)N(CC(=O)N(CC(=O)N(CCCCN)CC(=O)N(CC(=O)N(CC(=O)N(CCCCN)CC(N)=O)[C@@H](C)c1ccccc1)[C@@H](C)c1ccccc1)[C@@H](C)c1ccccc1)[C@@H](C)c1ccccc1)[C@@H](C)c1ccccc1)[C@@H](C)c1ccccc1 (H-[Nlys][Nspe][Nspe][Nlys]HSSKLQ[Nspe][Nspe][Nlys][Nspe][Nspe][Nlys][Nspe][Nspe][Nlys]-NH2)
CC50 (PC-3): 19.1 µM
RatioLC50 (LNCaP [1]): 3.2
CC50 (LNCaP [2]): 5.9 µM

C[C@@H](c1ccccc1)N(CC(N)=O)C(=O)CN(C(=O)CN(CCCCN)C(=O)CN(C(=O)CN(C(=O)CN(CCCCN)C(=O)CN(C(=O)CN(C(=O)CN(CCCCN)C(=O)CN(C(=O)CN(C(=O)CNCCCCN)[C@@H](C)c1ccccc1)[C@@H](C)c1ccccc1)[C@@H](C)c1ccccc1)[C@@H](C)c1ccccc1)[C@@H](C)c1ccccc1)[C@@H](C)c1ccccc1)[C@@H](C)c1ccccc1 (H-[Nlys][Nspe][Nspe][Nlys][Nspe][Nspe][Nlys][Nspe][Nspe][Nlys][Nspe][Nspe]-NH2)
CC50 (PC-3): 8.5 µM
RatioLC50 (LNCaP [1]): 1.7
CC50 (LNCaP [2]): 5 µM

CC(C)C[C@H](NC(=O)[C@H](CCCCN)NC(=O)[C@H](CO)NC(=O)[C@H](CO)NC(=O)[C@H](Cc1cnc[nH]1)NC(=O)CC[C@H](NC(=O)CC[C@H](NC(=O)CC[C@H](NC(=O)CC[C@H](N)C(=O)O)C(=O)O)C(=O)O)C(=O)O)C(=O)N[C@@H](CCC(N)=O)C(=O)N(CCCCN)CC(=O)N(CC(=O)N(CC(=O)N(CCCCN)CC(=O)N(CC(=O)N(CC(=O)N(CCCCN)CC(=O)N(CC(=O)N(CC(=O)N(CCCCN)CC(=O)N(CC(=O)N(CC(N)=O)[C@@H](C)c1ccccc1)[C@@H](C)c1ccccc1)[C@@H](C)c1ccccc1)[C@@H](C)c1ccccc1)[C@@H](C)c1ccccc1)[C@@H](C)c1ccccc1)[C@@H](C)c1ccccc1)[C@@H](C)c1ccccc1 ({γGlu-γGlu-γGlu-γGlu}-HSSKLQ[Nlys][Nspe][Nspe][Nlys][Nspe][Nspe][Nlys][Nspe][Nspe][Nlys][Nspe][Nspe]-NH2)
CC50 (PC-3): 36 µM
RatioLC50 (LNCaP [1]): 2.1
CC50 (LNCaP [2]): 17 µM

CC(C)C[C@H](NC(=O)[C@H](CCCCN)NC(=O)[C@H](CO)NC(=O)[C@H](CO)NC(=O)[C@H](Cc1cnc[nH]1)NC(=O)CC[C@H](NC(=O)CC[C@H](NC(=O)CC[C@H](N)C(=O)O)C(=O)O)C(=O)O)C(=O)N[C@@H](CCC(N)=O)C(=O)N(CCCCN)CC(=O)N(CC(=O)N(CC(=O)N(CCCCN)CC(=O)N(CC(=O)N(CC(=O)N(CCCCN)CC(=O)N(CC(=O)N(CC(=O)N(CCCCN)CC(=O)N(CC(=O)N(CC(N)=O)[C@@H](C)c1ccccc1)[C@@H](C)c1ccccc1)[C@@H](C)c1ccccc1)[C@@H](C)c1ccccc1)[C@@H](C)c1ccccc1)[C@@H](C)c1ccccc1)[C@@H](C)c1ccccc1)[C@@H](C)c1ccccc1 ({γGlu-γGlu-γGlu}-HSSKLQ[Nlys][Nspe][Nspe][Nlys][Nspe][Nspe][Nlys][Nspe][Nspe][Nlys][Nspe][Nspe]-NH2)
CC50 (PC-3): 34 µM
RatioLC50 (LNCaP [1]): 2
CC50 (LNCaP [2]): 17 µM

C[C@@H](c1ccccc1)N(CC(N)=O)C(=O)CN(C(=O)CN(CCCCN)C(=O)CN(C(=O)CN(C(=O)CN(CCCCN)C(=O)CN(C(=O)CN(C(=O)CN(CCCCN)C(=O)CN(C(=O)CN(C(=O)CN(CCCCN)C(=O)CC[C@H](NC(=O)CC[C@H](NC(=O)CC[C@H](N)C(=O)O)C(=O)O)C(=O)O)[C@@H](C)c1ccccc1)[C@@H](C)c1ccccc1)[C@@H](C)c1ccccc1)[C@@H](C)c1ccccc1)[C@@H](C)c1ccccc1)[C@@H](C)c1ccccc1)[C@@H](C)c1ccccc1 ({γGlu-γGlu-γGlu}-[Nlys][Nspe][Nspe][Nlys][Nspe][Nspe][Nlys][Nspe][Nspe][Nlys][Nspe][Nspe]-NH2)
CC50 (PC-3): 17 µM
RatioLC50 (LNCaP [1]): 1.1
CC50 (LNCaP [2]): 15 µM
